This note sets out measurements from ChEMBL document CHEMBL5579871, “Novel Papain-Like Protease Inhibitors for Treating Viral Infections, in particular, Coronavirus Infections” (ACS Med Chem Lett, 2024).

The target of this assay is Replicase polyprotein 1ab (Severe acute respiratory syndrome coronavirus 2, UniProt P0DTD1). Put plainly: Inhibition of SARS-CoV-2 papain-like protease using Z-RLRGG-AMC as fluorogenic substrate preincubated for 30 mins followed by substrate addition and measured after 60 mins by plate reader assay.
By IC50 is commonly meant the concentration at which inhibition is half-maximal. Low readings indicate higher potency, high ones lower potency. In turn, `Cc1ccc(N2CCN(C)CC2)cc1C(=O)N[C@H](C)c1cc(-c2cnn(C)c2)cc(-c2cccs2)c1` yielded an IC50 of 4 nM. `Cc1cc(C(=O)NCc2cscn2)ccc1C(=O)N[C@H](C)c1cc(-c2cnn(C)c2)cc(-c2ccns2)c1` had an IC50 of 3 nM. The figure for `Cc1ccc(NC(=O)[C@H]2CCCCN2)cc1C(=O)N[C@H](C)c1cc(-c2cnn(C)c2)cc(-c2cccs2)c1` is 4 nM. The same measure for `Cc1ccc(N2CCN(C)CC2)cc1C(=O)N[C@H](C)c1cc(-c2cnn(C)c2)cc(-c2cc(Cl)cnc2N)c1`: 3 nM; for `Cc1cc(CNCc2cscn2)ccc1C(=O)N[C@H](C)c1cc(-c2cnn(C)c2)cc(-c2ccns2)c1`: 3 nM. The figure for `Cc1ccc(N2CCNCC2)cc1C(=O)N[C@H](C)c1cc(-c2cnn(C)c2)cc(-c2cc(Cl)cnc2N)c1` is 4 nM.
